Test [1] relates to activated CD4+ human T-cells (IL-2). In words: IL-2 inhibition in supernatants from activated CD4+ human T-cells (cisbio HTRF). It counts as cell-based. The note with it: T-cell; CD3/CD28-activated CD4+ human T cells, ImmunoCult stimulation 20 to 24 hrs; geometric mean of count n. An outline of the steps: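 Primary human CD4+ T cells activated with CD3/CD28 for 3 days and expanded to 7-9 days total, plated at 30,000 cells/well. Cells preincubated 15 min with compound, then stimulated with ImmunoCult (1:50 final) for 20-24 h at 37° C. Supernatant IL-2 measured by HTRF (665/615 nm); IC50 from four-parameter logistic fit.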

Test [2] addresses IL-2-Inducible T-Cell Kinase (ITK) (Homo sapiens (Human), UniProt Q08881). In words: ITK enzyme assay (IL-2-inducible T-cell kinase activity). It counts as biochemical. The note with it: geometric mean of count n. Summed up:
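Full-length N-Flag/C-His human ITK, pre-incubated 30 min at RT with compound. Reaction in HEPES pH 7.5 buffer with MgCl2, glutathione, gelatin and Brij-35, started with BTK peptide substrate, 60 min at RT. EDTA stop, PT66/APC TR-FRET detection overnight; IC50 fitted by four-parameter logistic.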

IL-2-Inducible T-Cell Kinase (ITK), sequence (Q08881 whole entry): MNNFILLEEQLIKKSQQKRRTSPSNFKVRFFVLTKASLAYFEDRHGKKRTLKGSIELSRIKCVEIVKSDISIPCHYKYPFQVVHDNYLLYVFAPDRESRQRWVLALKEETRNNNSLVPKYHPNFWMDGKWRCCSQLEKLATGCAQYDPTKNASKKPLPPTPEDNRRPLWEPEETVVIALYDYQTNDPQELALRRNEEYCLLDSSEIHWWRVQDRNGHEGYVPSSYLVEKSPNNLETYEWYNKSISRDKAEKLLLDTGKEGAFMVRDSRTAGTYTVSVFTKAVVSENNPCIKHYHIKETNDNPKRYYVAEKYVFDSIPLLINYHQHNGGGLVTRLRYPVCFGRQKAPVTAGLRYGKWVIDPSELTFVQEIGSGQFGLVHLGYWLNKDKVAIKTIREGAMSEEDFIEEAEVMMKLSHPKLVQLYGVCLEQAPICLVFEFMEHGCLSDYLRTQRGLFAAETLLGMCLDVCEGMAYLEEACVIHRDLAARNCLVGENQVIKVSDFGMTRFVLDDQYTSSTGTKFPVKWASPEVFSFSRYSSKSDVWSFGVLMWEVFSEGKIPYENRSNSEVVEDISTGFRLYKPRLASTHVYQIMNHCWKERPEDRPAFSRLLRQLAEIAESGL

Regarding `CCC1(C(=O)N(C)c2cnc3[nH]c(-c4n[nH]c5c4CCC(C)(C)C5)nc3c2)CCOCC1` [Example 94, N-(2-(6,6-Dimethyl-4,5,6,7-tetrahydro-1H-indazol-3-yl)-3H-imidazo[4,5-b]pyridin-6-yl)-4-ethyl-N-methyltetrahydro-2H-pyran-4-carboxamide], the IC50 stood at 3170 nM in test [1] and 307 nM in test [2].

Regarding `CN(C(=O)C1(F)CCOCC1)c1cnc2[nH]c(-c3n[nH]c4c3CCC(C)(C)C4)nc2c1` [Example 98, N-(2-(6,6-Dimethyl-4,5,6,7-tetrahydro-1H-indazol-3-yl)-3H-imidazo[4,5-b]pyridin-6-yl)-4-fluoro-N-methyltetrahydro-2H-pyran-4-carboxamide], the IC50 in test [1] was determined as 1310 nM; in test [2], 122 nM.

For `CN(C(=O)CC(C)(C)C(F)F)c1cnc2[nH]c(-c3n[nH]c4c3CCC(C)(C)C4)nc2c1` [Example 99, N-(2-(6,6-Dimethyl-4,5,6,7-tetrahydro-1H-indazol-3-yl)-3H-imidazo[4,5-b]pyridin-6-yl)-4,4-difluoro-N,3,3-trimethylbutanamide], the figures for the IC50 in test [1] and in test [2] were 233 nM and 59 nM, respectively.

For the compound `CN(C(=O)C1(C)CC(F)(F)C1)c1cnc2[nH]c(-c3n[nH]c4c3CCC(C)(C)C4)nc2c1` [Example 100, N-(2-(6,6-Dimethyl-4,5,6,7-tetrahydro-1H-indazol-3-yl)-3H-imidazo[4,5-b]pyridin-6-yl)-3,3-difluoro-N,1-dimethylcyclobutane-1-carboxamide], the IC50 stood at 682 nM in test [1] and 104 nM in test [2].

In the case of `CN(C(=O)C1(F)CCCCC1)c1cnc2[nH]c(-c3n[nH]c4c3CCC(C)(C)C4)nc2c1` [Example 101, N-(2-(6,6-Dimethyl-4,5,6,7-tetrahydro-1H-indazol-3-yl)-3H-imidazo[4,5-b]pyridin-6-yl)-1-fluoro-N-methylcyclohexane-1-carboxamide], the 50% inhibitory concentration (IC50) in test [1] was 464 nM; in test [2], 48 nM.

Consider `CC(C)CC(=O)N(C)c1cnc2[nH]c(-c3n[nH]c4c3CCC(C)(C)C4)nc2c1` [Example 102, N-(2-(6,6-Dimethyl-4,5,6,7-tetrahydro-1H-indazol-3-yl)-3H-imidazo[4,5-b]pyridin-6-yl)-N,3-dimethylbutanamide], for which the figures for the half-maximal inhibitory concentration (IC50) in test [1] and in test [2] were 749 nM and 269 nM, respectively.

For `CC(C)C(=O)N(C)c1cnc2[nH]c(-c3n[nH]c4c3CCC(C)(C)C4)nc2c1` [Example 103, N-(2-(6,6-Dimethyl-4,5,6,7-tetrahydro-1H-indazol-3-yl)-3H-imidazo[4,5-b]pyridin-6-yl)-N-methylisobutyramide], the IC50 was 392 nM in test [1] and 104 nM in test [2].

As to `CN(C(=O)C1(C)CCC1)c1cnc2[nH]c(-c3n[nH]c4c3CCC(C)(C)C4)nc2c1` [Example 104, N-(2-(6,6-Dimethyl-4,5,6,7-tetrahydro-1H-indazol-3-yl)-3H-imidazo[4,5-b]pyridin-6-yl)-N,1-dimethylcyclobutane-1-carboxamide], the figures for the IC50 in test [1] and in test [2] were 517 nM and 101 nM, respectively.

Take `CN(C(=O)C1CCC1)c1cnc2[nH]c(-c3n[nH]c4c3CCC(C)(C)C4)nc2c1` [Example 105, N-(2-(6,6-Dimethyl-4,5,6,7-tetrahydro-1H-indazol-3-yl)-3H-imidazo[4,5-b]pyridin-6-yl)-N-methylcyclobutanecarboxamide]: the results for the IC50 in test [1] and in test [2] were 732 nM and 123 nM, respectively.

For `CC(C)CCC(=O)N(C)c1cnc2[nH]c(-c3n[nH]c4c3CCC(C)(C)C4)nc2c1` [Example 106, N-(2-(6,6-Dimethyl-4,5,6,7-tetrahydro-1H-indazol-3-yl)-3H-imidazo[4,5-b]pyridin-6-yl)-N,4-dimethylpentanamide], the results for the IC50 in test [1] and in test [2] were 1090 nM and 245 nM, respectively.

In the case of `CCC(CC)C(=O)N(C)c1cnc2[nH]c(-c3n[nH]c4c3CCC(C)(C)C4)nc2c1` [Example 107, N-(2-(6,6-Dimethyl-4,5,6,7-tetrahydro-1H-indazol-3-yl)-3H-imidazo[4,5-b]pyridin-6-yl)-2-ethyl-N-methylbutanamide], the IC50 in test [1] was 1870 nM; in test [2], 564 nM.

For the compound `CCCC(=O)N(C)c1cnc2[nH]c(-c3n[nH]c4c3CCC(C)(C)C4)nc2c1` [Example 108, N-(2-(6,6-Dimethyl-4,5,6,7-tetrahydro-1H-indazol-3-yl)-3H-imidazo[4,5-b]pyridin-6-yl)-N-methylbutyramide], the IC50 in test [1] was 367 nM; in test [2] it was 100 nM.

For the compound `CN(C(=O)C1(C)CCOCC1)c1cnc2[nH]c(-c3n[nH]c4c3CCC(C)(C)C4)nc2c1` [Example 109, N-(2-(6,6-Dimethyl-4,5,6,7-tetrahydro-1H-indazol-3-yl)-3H-imidazo[4,5-b]pyridin-6-yl)-N,4-dimethyltetrahydro-2H-pyran-4-carboxamide], the half-maximal inhibitory concentration (IC50) stood at 908 nM in test [1] and 421 nM in test [2].

On to `CN(C(=O)C1CCC(F)(F)CC1)c1cnc2[nH]c(-c3n[nH]c4c3CCC(C)(C)C4)nc2c1` [Example 110, N-(2-(6,6-Dimethyl-4,5,6,7-tetrahydro-1H-indazol-3-yl)-3H-imidazo[4,5-b]pyridin-6-yl)-4,4-difluoro-N-methylcyclohexane-1-carboxamide], for which the half-inhibitory concentration (IC50) in test [1] came to 1590 nM; in test [2], 554 nM.

For the compound `CN(C(=O)C1(C)CCCCO1)c1cnc2[nH]c(-c3n[nH]c4c3CCC(C)(C)C4)nc2c1` (stereo not shown) [Example 112, N-(2-(6,6-Dimethyl-4,5,6,7-tetrahydro-1H-indazol-3-yl)-3H-imidazo[4,5-b]pyridin-6-yl)-N,2-dimethyltetrahydro-2H-pyran-2-carboxamide], the IC50 worked out at 895 nM in test [1] and 234 nM in test [2].

`CN(C(=O)C1CCCC1)c1cnc2[nH]c(-c3n[nH]c4c3CCC(C)(C)C4)nc2c1` [Example 113, N-(2-(6,6-Dimethyl-4,5,6,7-tetrahydro-1H-indazol-3-yl)-3H-imidazo[4,5-b]pyridin-6-yl)-N-methylcyclopentanecarboxamide]: the values for the IC50 in test [1] and in test [2] were 1620 nM and 350 nM, respectively.

Turning to `CN(C(=O)CC1CCOCC1)c1cnc2[nH]c(-c3n[nH]c4c3CCC(C)(C)C4)nc2c1` [Example 114, N-(2-(6,6-Dimethyl-4,5,6,7-tetrahydro-1H-indazol-3-yl)-3H-imidazo[4,5-b]pyridin-6-yl)-N-methyl-2-(tetrahydro-2H-pyran-4-yl)acetamide], the IC50 amounted to 1510 nM in test [1] and 156 nM in test [2].

With `C[C@H](C(=O)N(C)c1cnc2[nH]c(-c3n[nH]c4c3C[C@@H]3C[C@]3(C)C4)nc2c1)N1C[C@H]2CC[C@@H]1CO2` [Example 115], the 50% inhibitory concentration (IC50) was determined as 415 nM in test [1] and 142 nM in test [2].

For the compound `C[C@@H](C(=O)N(C)c1cnc2[nH]c(-c3n[nH]c4c3C[C@@H]3C[C@]3(C)C4)nc2c1)N1C[C@H]2CC[C@@H]1CO2` [Example 116, (S)-2-((1R,4R)-2-Oxa-5-azabicyclo[2.2.2]octan-5-yl)-N-methyl-N-(2-((4aS,5aR)-5a-methyl-1,4,4a,5,5a,6-hexahydrocyclopropa[f]indazol-3-yl)-3H-imidazo[4,5-b]pyridin-6-yl)propanamide], the IC50 in test [1] came to 172 nM; in test [2], 18 nM.

Consider `C[C@H](C(=O)N(C)c1cnc2[nH]c(-c3n[nH]c4c3C[C@@H]3C[C@]3(C)C4)nc2c1)N1CCCCC1` [Example 117, (R)-N-Methyl-N-(2-((4aS,5aR)-5a-methyl-1,4,4a,5,5a,6-hexahydrocyclopropa[f]indazol-3-yl)-3H-imidazo[4,5-b]pyridin-6-yl)-2-(piperidin-1-yl)propanamide], for which the concentration for half-maximal inhibition (IC50) came out at 769 nM in test [1] and 275 nM in test [2].

As to `C[C@@H](C(=O)N(C)c1cnc2[nH]c(-c3n[nH]c4c3C[C@@H]3C[C@]3(C)C4)nc2c1)N1CCCCC1` [Example 118, (S)-N-Methyl-N-(2-((4aS,5aR)-5a-methyl-1,4,4a,5,5a,6-hexahydrocyclopropa[f]indazol-3-yl)-3H-imidazo[4,5-b]pyridin-6-yl)-2-(piperidin-1-yl)propanamide], the IC50 was 727 nM in test [1] and 243 nM in test [2].

Regarding `CC(C(=O)N(C)c1cnc2[nH]c(-c3n[nH]c4c3C[C@@H]3C[C@]3(C)C4)nc2c1)N1C2COCC1C2` (stereo partly drawn) [Example 119, 2-(3-Oxa-6-azabicyclo[3.1.1]heptan-6-yl)-N-methyl-N-(2-((4aS,5aR)-5a-methyl-1,4,4a,5,5a,6-hexahydrocyclopropa[f]indazol-3-yl)-3H-imidazo[4,5-b]pyridin-6-yl)propanamide], the IC50 came out at 4210 nM in test [1] and 470 nM in test [2].

In the case of `CC(C(=O)N(C)c1cnc2[nH]c(-c3n[nH]c4c3C[C@@H]3C[C@]3(C)C4)nc2c1)N1CCCCC1` (stereo partly drawn) [Example 120, N-Methyl-N-(2-((4aS,5aR)-5a-methyl-1,4,4a,5,5a,6-hexahydrocyclopropa[f]indazol-3-yl)-3H-imidazo[4,5-b]pyridin-6-yl)-2], the IC50 is 2340 nM in test [1] and 788 nM in test [2].

Source of the values: US20240124439A1, “Pyrido[2,3-D]Imidazole Derivatives and Their Use As Inhibitors of ITK for the Treatment of Skin Disease” (Pfizer Inc., priority 2020, published 2024).
